Earlier results as cited in patent publication US8097457B2, “Liquid crystalline substrates for culturing cells” (Wisconsin Alumni Research Foundation, priority 2005, dated 2012).

System: live cells
Settings: contacted with live cells for short periods of time

For CCCCCc1ccc(-c2ccc(C#N)cc2)cc1 [5CB, 4′-pentyl-4-cyanobiphenyl], the “toxicity to live cells” value is given as “cause cell death”.
